Organism: Rattus norvegicus
Assay: Open TG-GATES - Regimen: Daily Repeat
Format: toxicity, organism-based, Sprague-Dawley
Set-up: regimen Daily Repeat, gender Male, age 6 weeks
Settings: in vivo, po, route gavage; for APTT / Bas / Eos / Fbg / Hb / Ht / Lym / MCH / MCHC / MCV / Mono / Neu / PT / Plat / RBC / Ret / WBC: tissue Blood; for KIDNEY_L / KIDNEY_R / KIDNEY_TOTAL: tissue Kidney; for LIVER: tissue Liver; for ALP / ALT / AST / BUN / CRE / Ca / Cl / DBIL / GLC / IP / K / LDH / Na / PL / RALB / TBIL / TC / TG / TP / gamma-GTP: tissue Plasma
[1] = 0 mg/kg, 72 h, dose level Control, time 3 day
[2] = 0 mg/kg, […], dose level Control, time 7 day
[3] = 0 mg/kg, […], dose level Control, time 14 day
[4] = 0 mg/kg, […], dose level Control, time 28 day
[5] = 100 mg/kg, 72 h, dose level Low, time 3 day
[6] = 100 mg/kg, […], dose level Low, time 7 day
[7] = 100 mg/kg, […], dose level Low, time 14 day
[8] = 100 mg/kg, […], dose level Low, time 28 day

## COC(=O)C1=C(C)NC(C)=C(C(=O)OC)C1c1ccccc1[N+](=O)[O-] [NIFEDIPINE]
[1]
  TERMINAL_BW: 227.8 g
  APTT: 16.7 s
  Bas: 0.4%
  Eos: 1%
  Fbg: 313.6 mg/dL
  Hb: 13.4 g/dL
  Ht: 41.3%
  Lym: 80.2%
  MCH: 20.8 pg
  MCHC: 32.5%
  MCV: 64.2 fL
  Mono: 3.2%
  Neu: 14%
  PT: 14.5 s
  Plat: 122.9 x10_4/uL
  RBC: 643.8 x10_4/ul
  Ret: 7.5%
  WBC: 94.6 x10_2/uL
  KIDNEY_L: 1 g
  KIDNEY_R: 1 g
  KIDNEY_TOTAL: 2 g
  LIVER: 10.4 g
  ALP: 1654.8 IU/L
  ALT: 47.6 IU/L
  AST: 71.4 IU/L
  BUN: 14 mg/dL
  CRE: 0.2 mg/dL
  Ca: 11.1 mg/dL
  Cl: 106 meq/L
  DBIL: 0.014 mg/dL
  GLC: 179.2 mg/dL
  IP: 7.7 mg/dL
  K: 4.2 meq/L
  LDH: 85.4 IU/L
  Na: 144.8 meq/L
  PL: 162 mg/dL
  RALB: 2.7 g/dL
  TBIL: 0.028 mg/dL
  TC: 83.8 mg/dL
  TG: 109.2 mg/dL
  TP: 5.8 g/dL
  gamma-GTP: 1 IU/L
[2]
  TERMINAL_BW: 262.8 g
  APTT: 16.1 s
  Bas: 0.4%
  Eos: 1.4%
  Fbg: 286.6 mg/dL
  Hb: 13.7 g/dL
  Ht: 42%
  Lym: 75.8%
  MCH: 21 pg
  MCHC: 32.7%
  MCV: 64.1 fL
  Mono: 3%
  Neu: 18.2%
  PT: 14.2 s
  Plat: 133.6 x10_4/uL
  RBC: 656.4 x10_4/ul
  Ret: 5.7%
  WBC: 100.3 x10_2/uL
  KIDNEY_L: 1 g
  KIDNEY_R: 1 g
  KIDNEY_TOTAL: 2.1 g
  LIVER: 12.1 g
  ALP: 1580.4 IU/L
  ALT: 42.6 IU/L
  AST: 68.6 IU/L
  BUN: 15.4 mg/dL
  CRE: 0.2 mg/dL
  Ca: 11 mg/dL
  Cl: 106.4 meq/L
  DBIL: 0.014 mg/dL
  GLC: 183.6 mg/dL
  IP: 7.4 mg/dL
  K: 4 meq/L
  LDH: 98.2 IU/L
  Na: 145.2 meq/L
  PL: 159.2 mg/dL
  RALB: 2.7 g/dL
  TBIL: 0.026 mg/dL
  TC: 82.4 mg/dL
  TG: 111.8 mg/dL
  TP: 5.9 g/dL
  gamma-GTP: 1 IU/L
[3]
  TERMINAL_BW: 320 g
  APTT: 18.1 s
  Bas: 0%
  Eos: 1%
  Fbg: 320.8 mg/dL
  Hb: 14.8 g/dL
  Ht: 44.1%
  Lym: 79.2%
  MCH: 20.6 pg
  MCHC: 33.5%
  MCV: 61.3 fL
  Mono: 3%
  Neu: 15.6%
  PT: 14.2 s
  Plat: 117.8 x10_4/uL
  RBC: 720.2 x10_4/ul
  Ret: 4.2%
  WBC: 101 x10_2/uL
  KIDNEY_L: 1.2 g
  KIDNEY_R: 1.2 g
  KIDNEY_TOTAL: 2.5 g
  LIVER: 13.8 g
  ALP: 1854.8 IU/L
  ALT: 41.8 IU/L
  AST: 65 IU/L
  BUN: 16 mg/dL
  CRE: 0.2 mg/dL
  Cl: 105.6 meq/L
  DBIL: 0.012 mg/dL
  GLC: 184 mg/dL
  IP: 7.3 mg/dL
  K: 4 meq/L
  LDH: 57.8 IU/L
  Na: 144.2 meq/L
  PL: 158.8 mg/dL
  RALB: 2.8 g/dL
  TBIL: 0.024 mg/dL
  TC: 75.4 mg/dL
  TG: 150.8 mg/dL
  TP: 6 g/dL
  gamma-GTP: 1 IU/L
[4]
  TERMINAL_BW: 416 g
  APTT: 16.7 s
  Bas: 0.4%
  Eos: 1%
  Fbg: 313.6 mg/dL
  Hb: 13.4 g/dL
  Ht: 41.3%
  Lym: 80.2%
  MCH: 20.8 pg
  MCHC: 32.5%
  MCV: 64.2 fL
  Mono: 3.2%
  Neu: 14%
  PT: 14.5 s
  Plat: 122.9 x10_4/uL
  RBC: 643.8 x10_4/ul
  Ret: 7.5%
  WBC: 94.6 x10_2/uL
  KIDNEY_L: 1.4 g
  KIDNEY_R: 1.4 g
  KIDNEY_TOTAL: 2.7 g
  LIVER: 17.4 g
  ALP: 1068.6 IU/L
  ALT: 36.2 IU/L
  AST: 63 IU/L
  BUN: 17.4 mg/dL
  CRE: 0.3 mg/dL
  Ca: 10.7 mg/dL
  Cl: 104.4 meq/L
  DBIL: 0.01 mg/dL
  GLC: 192.8 mg/dL
  IP: 6.1 mg/dL
  K: 3.9 meq/L
  LDH: 66 IU/L
  Na: 143.8 meq/L
  PL: 161.6 mg/dL
  RALB: 2.8 g/dL
  TBIL: 0.026 mg/dL
  TC: 75 mg/dL
  TG: 175.2 mg/dL
  TP: 6.3 g/dL
  gamma-GTP: 0.8 IU/L
[5]
  TERMINAL_BW: 223 g
  APTT: 17.6 s
  Bas: 0%
  Eos: 1%
  Fbg: 281.6 mg/dL
  Hb: 13.6 g/dL
  Ht: 42.3%
  Lym: 71.4%
  MCH: 20.7 pg
  MCHC: 32.3%
  MCV: 64 fL
  Mono: 3.4%
  Neu: 23.6%
  PT: 13.8 s
  Plat: 130.7 x10_4/uL
  RBC: 660.2 x10_4/ul
  Ret: 9.2%
  WBC: 96 x10_2/uL
  KIDNEY_L: 0.9 g
  KIDNEY_R: 0.9 g
  KIDNEY_TOTAL: 1.9 g
  LIVER: 11 g
  ALP: 1508 IU/L
  ALT: 46.6 IU/L
  AST: 65.8 IU/L
  BUN: 15 mg/dL
  CRE: 0.2 mg/dL
  Ca: 10.9 mg/dL
  Cl: 107 meq/L
  DBIL: 0.014 mg/dL
  GLC: 173.4 mg/dL
  IP: 6.8 mg/dL
  K: 4.5 meq/L
  LDH: 88.6 IU/L
  Na: 143.2 meq/L
  PL: 152 mg/dL
  RALB: 2.7 g/dL
  TBIL: 0.028 mg/dL
  TC: 82.2 mg/dL
  TG: 98.8 mg/dL
  TP: 5.7 g/dL
  gamma-GTP: 1 IU/L
[6]
  TERMINAL_BW: 261.8 g
  APTT: 14.8 s
  Bas: 0.2%
  Eos: 1.4%
  Fbg: 283.4 mg/dL
  Hb: 13.8 g/dL
  Ht: 42.1%
  Lym: 73%
  MCH: 20.9 pg
  MCHC: 32.8%
  MCV: 63.8 fL
  Mono: 3%
  Neu: 21.8%
  PT: 13.7 s
  Plat: 125.1 x10_4/uL
  RBC: 659.6 x10_4/ul
  Ret: 6.8%
  WBC: 105.6 x10_2/uL
  KIDNEY_L: 1.1 g
  KIDNEY_R: 1.1 g
  KIDNEY_TOTAL: 2.1 g
  LIVER: 13.2 g
  ALP: 1407 IU/L
  ALT: 47 IU/L
  AST: 67.4 IU/L
  BUN: 17.4 mg/dL
  CRE: 0.2 mg/dL
  Ca: 10.7 mg/dL
  Cl: 106.2 meq/L
  DBIL: 0.014 mg/dL
  GLC: 174.8 mg/dL
  IP: 6.8 mg/dL
  K: 4.2 meq/L
  LDH: 86.4 IU/L
  Na: 143.8 meq/L
  PL: 144 mg/dL
  RALB: 2.7 g/dL
  TBIL: 0.028 mg/dL
  TC: 77.4 mg/dL
  TG: 93.4 mg/dL
  TP: 5.9 g/dL
  gamma-GTP: 1 IU/L
[7]
  TERMINAL_BW: 322.2 g
  APTT: 19 s
  Bas: 0.2%
  Eos: 1%
  Fbg: 260.4 mg/dL
  Hb: 14.5 g/dL
  Ht: 43.7%
  Lym: 72.4%
  MCH: 21.1 pg
  MCHC: 33.2%
  MCV: 63.6 fL
  Mono: 2.8%
  PT: 14 s
  Plat: 113.8 x10_4/uL
  RBC: 688 x10_4/ul
  Ret: 5.4%
  WBC: 110.8 x10_2/uL
  KIDNEY_L: 1.2 g
  KIDNEY_R: 1.2 g
  KIDNEY_TOTAL: 2.5 g
  LIVER: 15 g
  ALP: 1646.4 IU/L
  ALT: 44.4 IU/L
  AST: 71.4 IU/L
  BUN: 17.6 mg/dL
  CRE: 0.2 mg/dL
  Ca: 11 mg/dL
  Cl: 105.8 meq/L
  DBIL: 0.012 mg/dL
  GLC: 177.4 mg/dL
  IP: 6.7 mg/dL
  K: 4.2 meq/L
  LDH: 46.2 IU/L
  Na: 143.2 meq/L
  PL: 149.6 mg/dL
  RALB: 2.7 g/dL
  TBIL: 0.026 mg/dL
  TC: 73.6 mg/dL
  TP: 5.9 g/dL
  gamma-GTP: 1 IU/L
[8]
  TERMINAL_BW: 378.4 g
  APTT: 17.6 s
  Bas: 0%
  Eos: 1%
  Fbg: 281.6 mg/dL
  Hb: 13.6 g/dL
  Ht: 42.3%
  Lym: 71.4%
  MCH: 20.7 pg
  MCHC: 32.3%
  MCV: 64 fL
  Mono: 3.4%
  Neu: 23.6%
  PT: 13.8 s
  Plat: 130.7 x10_4/uL
  RBC: 660.2 x10_4/ul
  Ret: 9.2%
  WBC: 96 x10_2/uL
  KIDNEY_L: 1.3 g
  KIDNEY_R: 1.3 g
  KIDNEY_TOTAL: 2.6 g
  LIVER: 15.4 g
  ALP: 1032.8 IU/L
  ALT: 39.6 IU/L
  AST: 71.2 IU/L
  BUN: 17.2 mg/dL
  CRE: 0.3 mg/dL
  Ca: 10.4 mg/dL
  Cl: 107.4 meq/L
  DBIL: 0.012 mg/dL
  GLC: 167.8 mg/dL
  IP: 5.6 mg/dL
  K: 3.9 meq/L
  LDH: 61.8 IU/L
  Na: 143.8 meq/L
  PL: 135 mg/dL
  RALB: 2.8 g/dL
  TBIL: 0.024 mg/dL
  TC: 64.6 mg/dL
  TG: 117.8 mg/dL
  TP: 6.1 g/dL
